These results are taken from ChEMBL document CHEMBL1131792, “Structure-based design of a non-peptidic antagonist of the SH2 domain of GRB2” (Bioorg Med Chem Lett, 1999).

For experiment [1], the target named is T1, Growth factor receptor-bound protein 2 (Homo sapiens, UniProt P62993). Put plainly: Inhibition of Grb2 SH2 domain binding to phospho-EGF receptor intracellular C-terminal domain at 5 mM.
Target sequence in this assay (P62993 whole entry, looked up, the tested form may be a part): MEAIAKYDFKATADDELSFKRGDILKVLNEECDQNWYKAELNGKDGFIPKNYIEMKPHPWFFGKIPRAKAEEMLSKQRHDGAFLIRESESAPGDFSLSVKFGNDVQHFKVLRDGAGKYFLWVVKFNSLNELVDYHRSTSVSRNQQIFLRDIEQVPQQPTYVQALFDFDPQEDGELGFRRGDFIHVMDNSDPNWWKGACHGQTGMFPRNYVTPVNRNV
In experiment [2] the target is T1, Growth factor receptor-bound protein 2. Put plainly: Inhibition of Grb2 SH2 domain binding to phospho-EGF receptor intracellular C-terminal domain.
Target sequence in this assay (P62993 whole entry, the tested form may be a part): as the sequence (P62993 whole entry, looked up, the tested form may be a part) above

Take `O=P(O)(O)Oc1ccccc1`: in experiment [1], the inhibition (in general, the relative decrease from the control value, in per cent) came to 55%.
`Cc1sc(-c2nccc(N)n2)nc1-c1ccc(OP(=O)(O)O)cc1`: the IC50 (commonly the concentration that inhibits the measured activity by half) in experiment [2] was 25.9 µM.
`Nc1ccnc(NCCc2ccc(OP(=O)(O)O)cc2)n1`: the IC50 in experiment [2] was more than 200 µM.
